What was measured:
Test in all cases: relative viability (nuclei count vs DMSO), 5 days (fraction); higher = more cells survive
Linifanib + Palbociclib = compound: Cc1ccc(F)c(NC(=O)Nc2ccc(-c3cccc4[nH]nc(N)c34)cc2)c1 [Linifanib] + CC(=O)c1c(C)c2cnc(Nc3ccc(N4CCNCC4)cn3)nc2n(C2CCCC2)c1=O [Palbociclib] (partner 0.5 µM)
In short: (§1)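 Lung cancer cell lines in 1536-well plates got either a single drug or a fixed anchor-drug dose together with five library-drug doses (not always all listed) in √10 steps, by pin tool, on the day after seeding. Nuclei were counted after 5 days, and relative viability is the treated-to-vehicle ratio of nuclei counts. Values are medians of duplicate plates.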

Linifanib + OSI-027 = compound: Cc1ccc(F)c(NC(=O)Nc2ccc(-c3cccc4[nH]nc(N)c34)cc2)c1 [Linifanib] + COc1cccc2cc(-c3nc([C@H]4CC[C@H](C(=O)O)CC4)n4ncnc(N)c34)[nH]c12 [OSI-027] (partner 0.5 µM)
In short: as §1

Linifanib + Tozasertib = compound: Cc1ccc(F)c(NC(=O)Nc2ccc(-c3cccc4[nH]nc(N)c34)cc2)c1 [Linifanib] + Cc1cc(Nc2cc(N3CCN(C)CC3)nc(Sc3ccc(NC(=O)C4CC4)cc3)n2)n[nH]1 [Tozasertib] (partner 0.1 µM)
In short: as §1

Linifanib + Vorinostat = compound: Cc1ccc(F)c(NC(=O)Nc2ccc(-c3cccc4[nH]nc(N)c34)cc2)c1 [Linifanib] + O=C(CCCCCCC(=O)Nc1ccccc1)NO [Vorinostat] (partner 1 µM)
In short: as §1

Linifanib + Trametinib = compound: Cc1ccc(F)c(NC(=O)Nc2ccc(-c3cccc4[nH]nc(N)c34)cc2)c1 [Linifanib] + CC(=O)Nc1cccc(-n2c(=O)n(C3CC3)c(=O)c3c(Nc4ccc(I)cc4F)n(C)c(=O)c(C)c32)c1 [Trametinib] (partner 0.02 µM)
In short: as §1

Linifanib + AZD7762 = compound: Cc1ccc(F)c(NC(=O)Nc2ccc(-c3cccc4[nH]nc(N)c34)cc2)c1 [Linifanib] + NC(=O)Nc1cc(-c2cccc(F)c2)sc1C(=O)N[C@H]1CCCNC1 [AZD7762] (partner 0.2 µM)
In short: as §1

Linifanib + Decitabine = compound: Cc1ccc(F)c(NC(=O)Nc2ccc(-c3cccc4[nH]nc(N)c34)cc2)c1 [Linifanib] + Nc1ncn([C@H]2C[C@H](O)[C@@H](CO)O2)c(=O)n1 [Decitabine] (partner 2 µM)
In short: as §1

Linifanib + Olaparib = compound: Cc1ccc(F)c(NC(=O)Nc2ccc(-c3cccc4[nH]nc(N)c34)cc2)c1 [Linifanib] + O=C(c1cc(Cc2n[nH]c(=O)c3ccccc23)ccc1F)N1CCN(C(=O)C2CC2)CC1 [Olaparib] (partner 8 µM)
In short: as §1

Linifanib + Pemetrexed = compound: Cc1ccc(F)c(NC(=O)Nc2ccc(-c3cccc4[nH]nc(N)c34)cc2)c1 [Linifanib] + Nc1nc2[nH]cc(CCc3ccc(C(=O)N[C@@H](CCC(=O)O)C(=O)O)cc3)c2c(=O)[nH]1 [Pemetrexed] (partner 0.2 µM)
In short: as §1

Linifanib = compound: Cc1ccc(F)c(NC(=O)Nc2ccc(-c3cccc4[nH]nc(N)c34)cc2)c1 [Linifanib]
In short: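 Vehicle-anchored 1536-well plates of lung cancer cell lines, held overnight at 37 °C, were pinned with five library-drug doses (not always all listed) spaced by √10. No medium change followed over the next 5 days, after which the cells were fixed, permeabilised and Hoechst-stained together and imaged at 4×. Nuclei were counted with MetaXpress, and viability is treated-well nuclei over vehicle-well nuclei, taken as a median across plates. Plates passed with control CV below 25% and at least one doubling.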

Linifanib + Pictilisib = compound: Cc1ccc(F)c(NC(=O)Nc2ccc(-c3cccc4[nH]nc(N)c34)cc2)c1 [Linifanib] + CS(=O)(=O)N1CCN(Cc2cc3nc(-c4cccc5[nH]ncc45)nc(N4CCOCC4)c3s2)CC1 [Pictilisib] (partner 1 µM)
In short: as §1

Linifanib + Navitoclax = compound: Cc1ccc(F)c(NC(=O)Nc2ccc(-c3cccc4[nH]nc(N)c34)cc2)c1 [Linifanib] + CC1(C)CCC(c2ccc(Cl)cc2)=C(CN2CCN(c3ccc(C(=O)NS(=O)(=O)c4ccc(N[C@H](CCN5CCOCC5)CSc5ccccc5)c(S(=O)(=O)C(F)(F)F)c4)cc3)CC2)C1 [Navitoclax] (partner 0.5 µM)
In short: as §1

Linifanib + Foretinib = compound: Cc1ccc(F)c(NC(=O)Nc2ccc(-c3cccc4[nH]nc(N)c34)cc2)c1 [Linifanib] + COc1cc2c(Oc3ccc(NC(=O)C4(C(=O)Nc5ccc(F)cc5)CC4)cc3F)ccnc2cc1OCCCN1CCOCC1 [Foretinib] (partner 0.25 µM)
In short: as §1

Linifanib + Bortezomib = compound: Cc1ccc(F)c(NC(=O)Nc2ccc(-c3cccc4[nH]nc(N)c34)cc2)c1 [Linifanib] + CC(C)C[C@H](NC(=O)[C@H](Cc1ccccc1)NC(=O)c1cnccn1)B(O)O [Bortezomib] (partner 0.002 µM)
In short: as §1

Linifanib + Alpelisib = compound: Cc1ccc(F)c(NC(=O)Nc2ccc(-c3cccc4[nH]nc(N)c34)cc2)c1 [Linifanib] + Cc1nc(NC(=O)N2CCC[C@H]2C(N)=O)sc1-c1ccnc(C(C)(C)C(F)(F)F)c1 [Alpelisib] (partner 2 µM)
In short: as §1

Linifanib + Lapatinib = compound: Cc1ccc(F)c(NC(=O)Nc2ccc(-c3cccc4[nH]nc(N)c34)cc2)c1 [Linifanib] + CS(=O)(=O)CCNCc1ccc(-c2ccc3ncnc(Nc4ccc(OCc5cccc(F)c5)c(Cl)c4)c3c2)o1 [Lapatinib] (partner 2 µM)
In short: as §1

Linifanib + Linsitinib = compound: Cc1ccc(F)c(NC(=O)Nc2ccc(-c3cccc4[nH]nc(N)c34)cc2)c1 [Linifanib] + C[C@]1(O)C[C@@H](c2nc(-c3ccc4ccc(-c5ccccc5)nc4c3)c3c(N)nccn32)C1 [Linsitinib] (partner 1 µM)
In short: as §1

Linifanib + Crizotinib = compound: Cc1ccc(F)c(NC(=O)Nc2ccc(-c3cccc4[nH]nc(N)c34)cc2)c1 [Linifanib] + C[C@@H](Oc1cc(-c2cnn(C3CCNCC3)c2)cnc1N)c1c(Cl)ccc(F)c1Cl [Crizotinib] (partner 1 µM)
In short: as §1

Linifanib + Phenformin = compound: Cc1ccc(F)c(NC(=O)Nc2ccc(-c3cccc4[nH]nc(N)c34)cc2)c1 [Linifanib] + N=C(N)NC(=N)NCCc1ccccc1 [Phenformin] (partner 250 µM)
In short: as §1

Cell Line | relative viability (Linifanib + AZD7762; first compound 0.3162 µM) | relative viability (Linifanib + Decitabine; first compound 0.03162 µM) | relative viability (Linifanib + Decitabine; first compound 0.3162 µM) | relative viability (Linifanib + Olaparib; first compound 0.03162 µM) | relative viability (Linifanib + Olaparib; first compound 0.3162 µM) | relative viability (Linifanib; 0.03162 µM) | relative viability (Linifanib; 0.1 µM) | relative viability (Linifanib; 0.3162 µM) | relative viability (Linifanib + Pictilisib; first compound 0.03162 µM) | relative viability (Linifanib + Pictilisib; first compound 0.1 µM) | relative viability (Linifanib + Pictilisib; first compound 0.3162 µM) | relative viability (Linifanib + Navitoclax; first compound 0.03162 µM) | relative viability (Linifanib + Navitoclax; first compound 0.1 µM) | relative viability (Linifanib + Navitoclax; first compound 0.3162 µM) | relative viability (Linifanib + Foretinib; first compound 0.1 µM) | relative viability (Linifanib + Foretinib; first compound 0.3162 µM) | relative viability (Linifanib + Alpelisib; first compound 0.03162 µM) | relative viability (Linifanib + Alpelisib; first compound 0.1 µM) | relative viability (Linifanib + Alpelisib; first compound 0.3162 µM) | relative viability (Linifanib + Lapatinib; first compound 0.1 µM) | also measured
NCI-H1648 | 0.509 | 0.5 | 0.45 | 0.847 | 1.11 | 0.847 | 0.688 | 1.08 | – | – | – | – | – | – | – | – | – | – | – | – | relative viability (Linifanib + Palbociclib; first compound 0.03162 µM): 0.234; relative viability (Linifanib + Palbociclib; first compound 0.3162 µM): 0.269; relative viability (Linifanib + OSI-027; first compound 0.03162 µM): 0.26; relative viability (Linifanib + OSI-027; first compound 0.1 µM): 0.229; relative viability (Linifanib + OSI-027; first compound 0.3162 µM): 0.263; relative viability (Linifanib + Tozasertib; first compound 0.03162 µM): 0.433; relative viability (Linifanib + Tozasertib; first compound 0.1 µM): 0.441; relative viability (Linifanib + Tozasertib; first compound 0.3162 µM): 0.422; relative viability (Linifanib + Vorinostat; first compound 0.03162 µM): 0.491; relative viability (Linifanib + Vorinostat; first compound 0.3162 µM): 0.412; relative viability (Linifanib + Trametinib; first compound 0.03162 µM): 0.469; relative viability (Linifanib + Trametinib; first compound 0.3162 µM): 0.461; relative viability (Linifanib + AZD7762; first compound 0.03162 µM): 0.755; relative viability (Linifanib + Pemetrexed; first compound 0.03162 µM): 0.716; relative viability (Linifanib + Pemetrexed; first compound 0.3162 µM): 0.654
NCI-H1703 | 0.118 | – | – | 0.151 | 0.125 | 0.219 | 0.524 | 0.213 | 0.223 | 0.211 | 0.242 | 0.277 | 0.398 | 0.257 | 0.345 | 0.294 | 0.205 | 0.293 | 0.158 | 0.438 | relative viability (Linifanib + Bortezomib; first compound 0.03162 µM): 0.175; relative viability (Linifanib + Bortezomib; first compound 0.1 µM): 0.243; relative viability (Linifanib + Bortezomib; first compound 0.3162 µM): 0.154; relative viability (Linifanib + AZD7762; first compound 0.1 µM): 0.147; relative viability (Linifanib + Lapatinib; first compound 0.3162 µM): 0.267; relative viability (Linifanib + Olaparib; first compound 0.1 µM): 0.269; relative viability (Linifanib + Linsitinib; first compound 0.03162 µM): 0.141; relative viability (Linifanib + Linsitinib; first compound 0.1 µM): 0.27; relative viability (Linifanib + Linsitinib; first compound 0.3162 µM): 0.129; relative viability (Linifanib + Crizotinib; first compound 0.1 µM): 0.46; relative viability (Linifanib + Crizotinib; first compound 0.3162 µM): 0.215
A549 | – | 0.285 | 0.374 | 0.369 | 0.305 | 1.01 | 1.05 | 0.996 | 0.399 | 0.515 | 0.49 | 1.18 | 1.28 | 1.09 | 0.922 | 0.808 | 0.885 | 0.948 | 0.647 | 1.06 | relative viability (Linifanib + Foretinib; first compound 0.03162 µM): 0.972; relative viability (Linifanib + Decitabine; first compound 0.1 µM): 0.309; relative viability (Linifanib + Lapatinib; first compound 0.03162 µM): 0.974; relative viability (Linifanib + Lapatinib; first compound 0.3162 µM): 0.929; relative viability (Linifanib + Olaparib; first compound 0.1 µM): 0.535; relative viability (Linifanib + Linsitinib; first compound 0.03162 µM): 0.583; relative viability (Linifanib + Linsitinib; first compound 0.1 µM): 0.716; relative viability (Linifanib + Linsitinib; first compound 0.3162 µM): 0.638; relative viability (Linifanib + Phenformin; first compound 0.03162 µM): 0.197; relative viability (Linifanib + Phenformin; first compound 0.1 µM): 0.215; relative viability (Linifanib + Phenformin; first compound 0.3162 µM): 0.159; relative viability (Linifanib + Crizotinib; first compound 0.03162 µM): 0.795; relative viability (Linifanib + Crizotinib; first compound 0.1 µM): 0.907; relative viability (Linifanib + Crizotinib; first compound 0.3162 µM): 0.726

Source: the supplement of paper PMC10307832
